Measured values: patent US20210100905A1, “APPLICATION OF COMPOUND OR TRADITIONAL CHINESE MEDICINE EXTRACT IN PREPARATION OF NUCLEIC ACID DELIVERY AGENT, AND RELATED PRODUCTS” (INSTITUTE OF BASIC MEDICAL SCIENCES CHINESE ACADEMY OF …, priority 2018, published 2021)

Columns and labels:
[1] = In vivo delivery of lipid nucleic acid mixture by gavage, RT-qPCR in blood and lung; parameters: species or system C57 mice; details: FIG. 14, 6 hours, whole blood and lung
Procedure: 1. Preparation of lipid nucleic acid mixture: the mixture of lipid No. 11 or No. 12 with nucleic acid, and the mixture of the lipid combination of No. 1/2/4/9/14/18/19/20/21/22/23/24/25/26/27/28/29/30/32, No. 3/8/10/11/12/13, and No. 6/15/16/17/31 with nucleic acid were prepared by reverse evaporation and boiling method (refer to steps 2.1-2.2).
2. Gavage were performed on 6-8 weeks old male C57 mice: 200 μl/aminal, grouped as follows:
3. Sample collection: 6 hours after gavage, mouse whole blood (500 μl) and lung (110 mg) were collected by 1.5 mL TRIzol-LS or 3 mL TRIzol, respectively, homogenized and then frozen under −80° C. for storage.
4. […]

[2] = test system: MRC-5 cell (lung fibroblast); experiment: In vitro delivery of lipid nucleic acid mixture, RT-qPCR of intracellular small RNA; type: cell-based; details: for delivery of double-stranded RNA into MRC-5 cells (real-time PCR) / delivery of HJT-sRNA-m7 single-stranded RNA into MRC-5 cells (real-time PCR): single lipid; for delivery of double-stranded RNA into MRC-5 cells (real-time PCR): boiling (heating) method, FIGS. 77, 91; for delivery of HJT-sRNA-m7 single-stranded RNA into MRC-5 cells (real-time PCR): boiling method, FIGS. 78, 92, 103
Summary of the method: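 A549 or MRC-5 cells seeded overnight, then given lipid–HJT-sRNA-m7 mixture (ether-evaporation or heated chloroform preparation) at 100 nM sRNA final for 12–24 h. After PBS washes, intracellular sRNA measured by stem-loop RT and SYBR Green qPCR; relative level by 2-ΔCt method with U6 reference.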

Compound | entry of HJT-sRNA-m7 into blood and lung [1] | amount of HJT-sRNA-m7 that entered the cells (RT-qPCR) ([2]; Example 2-1, FIG. 33, double-stranded, 100 nM, 24 hours, boiling 100° C. 30 min, No. 38 series) | delivery effect relative to that of RNAiMAX (real-time PCR) ([2]; double-stranded RNA, heating method, FIG. 91) | delivery of double-stranded RNA into MRC-5 cells (real-time PCR) [2] | delivery of HJT-sRNA-m7 single-stranded RNA into MRC-5 cells (real-time PCR) [2] | delivery effect relative to that of RNAiMAX (real-time PCR) ([2]; double-stranded HJT-sRNA-m7, reverse evaporation method, FIG. 77)
CCCCC/C=C\C/C=C\CCCCCCCC(=O)O[C@H](COC(=O)CCCCCCCCCCCCCCCCC)COP(=O)([O-])OCC[N+](C)(C)C [No. 11, trimethyl(2-{[(2R)-2-[(9Z, 12Z)-octadeca-9,12-dienoyloxy]-3-(octadecanoyloxy)propyl-phosphonato]oxy}ethyl) azanium] | could promote entry of small fragments of nucleic acids into the blood and lung | – | – | – | – | –
CCCCC/C=C\C/C=C\CCCCCCCC(=O)O[C@H](COC(=O)CCCCCCCCCCCCCCC)COP(=O)([O-])OCC[N+](C)(C)C [No. 12, (2-{[(2R)-3-(hexadecanoyloxy)-2-[(9Z,12Z)-octadeca-9,12-dienoyloxy]propylphosphonato]oxy}ethyl) trimethylazanium] | could promote entry of small fragments of nucleic acids into the blood and lung | – | – | – | – | –
CCCCCC/C=C\CCCCCCCC(=O)O[C@H](COC(=O)CCCCCCCCCCCCCCC)COP(=O)(O)OCCN [No. 38, (2-aminoethoxy) [(2R)-2-[(9Z)-hexadec-9-enoyloxy]-3-(hexadecanoyloxy)propoxy] phosphinic acid] | – | effectively delivered nucleic acids into MRC-5 cells, showing an effect close to the transfection reagent RNAiMAX | about twice | delivered double-stranded RNA into A549 and MRC-5 cells | the efficiency of delivery was much higher than that of RNAiMAX | –
CCCCCCCCCCCCCCCCCCC[C@@H](O)[C@@H](N)CO [No. 41, Sphinganine (d22:0)] | – | – | – | delivered double-stranded RNA into MRC-5 cells | delivered HJT-sRNA-m7 single-stranded RNA into A549 and MRC-5 cells | significantly higher than that of RNAiMAX
